Experimental data taken from patent US5545547A, “Enzymes as agricultural chemical adjuvants” (priority 1992, dated 1996).

Legend:
Format in all cases: in vivo
Alfalfa = assay: Greenhouse multispecies herbicide screen with/without P. mendocina enzyme
Protocol: (§1) Several plant species including weeds and crops are used in these experiments.
(§2) A number of herbicides from various chemical classes were compared in a multispecies screen for percent chlorosis, necrosis and vigor reduction both with and without application of the enzyme from Pseudomonas mendocina ATCC 53552 described earlier. […] Two different enzyme concentrations were used: 0.5 mg/ml (HE) and 0.05 mg/ml (LE) and applied at the rate of 40 gallons/acre. All spraying solutions were at pH 10 and contained 100 mm sodium phosphate each. […] All the experiments were carried out in a greenhouse.
(§3) Chlorosis--figures represent percent of plants showing chlorosis.
(§4) Necrosis--figures represent percent of plants showing necrosis.
(§5) Vigor--figures represent percent of plants showing decreased vigor.
(§6) Phytotoxicity--figures represent the average percent of chlorosis, necrosis, and vigor for a given sample.

Barnyard Grass = assay: as above
Protocol: as §1, §2, §3, §4, §5, §6

Soybeans = assay: as above; details: one week after treatment
Source text: as §1
A number of herbicides from various chemical classes were compared in a multispecies screen for percent chlorosis, necrosis and vigor reduction both with and without application of the enzyme from Pseudomonas mendocina ATCC 53552 described earlier. The herbicides were applied to various plants at the manufacturers recommended doses and at 10% and 40% of the recommended dose. Two different enzyme concentrations were used: 0.5 mg/ml (HE) and 0.05 mg/ml (LE) and applied at the rate of 40 gallons/acre. All spraying solutions were at pH 10 and contained 100 mm sodium phosphate each. Ratings were done at 6 and 12 days after the treatment. All the experiments were carried out in a greenhouse.
as §3, §4, §5, §6
The method of Example 1 was used except that the enzyme was applied 2 hours prior to administering the agricultural chemical with the following results. Ratings were done two weeks after treatment

[1] = test system: Beefsteak Tomato seedlings; assay: HYVAR uptake by whole plants, effect of macerating enzymes (GC219); parameters: key: -=No phytotoxicity; +=Some phytotoxicity seen in area of treatment.; ++=Phytotoxicity seen outside area of treatment
Protocol: 13-16 day old Beefsteak Tomato seedlings were treated with solutions of HYVAR herbicides [5-bromo-6-methyl-3-(1-methylpropyl)-2,4-(1H,3H)-pyrimidinedione] and GC219. Solutions of Hyvar and GC219 were made up on DI H2 O and 1% ethanol and adjusted with 0.1N HCL to a final pH of 4.0. 10 ul of solution was applied to each cotyledon and 15 ul to each secondary pentafoliate leaflet. 10 tomato seedlings were used for each test solutions. Observations were made daily after treatment for 4 days.
HYVAR herbicide [5-bromo-6-methyl-3-(1-methylpropyl)-2,4-(1H,3H)-pyrimidinedione] was diluted 1:200 or 1:400 for each experiment.

[2] = HYVAR 10% dose, High Enzyme, one week after treatment
[3] = HYVAR 10% dose, Low Enzyme, one week after treatment
[4] = HYVAR 10% dose, No Enzyme, one week after treatment
[5] = HYVAR 18%, High Enzyme, two weeks after treatment
[6] = HYVAR 18%, Low Enzyme, two weeks after treatment
[7] = HYVAR 18%, No Enzyme, two weeks after treatment
[8] = HYVAR 40% dose, High Enzyme, one week after treatment
[9] = HYVAR 40% dose, Low Enzyme, one week after treatment
[10] = HYVAR 40% dose, No Enzyme, one week after treatment
[11] = HYVAR 100% dose, No Enzyme, one week after treatment

CCC(C)n1c(=O)[nH]c(C)c(Br)c1=O (stereo not shown) [HYVAR, 5-bromo-6-methyl-3-(1-methylpropyl)-2,4-(1H,3H)-pyrimidinedione]
CHL (chlorosis) (Alfalfa; [2]): 18% | NEC (necrosis) (Alfalfa; [2]): 0% | PHY (phytotoxicity) (Alfalfa; [2]): 10% | VIG (vigor) (Alfalfa; [2]): 10% | CHL (chlorosis) (Alfalfa; [3]): 50% | NEC (necrosis) (Alfalfa; [3]): 5% | PHY (phytotoxicity) (Alfalfa; [3]): 28% | VIG (vigor) (Alfalfa; [3]): 30% | CHL (chlorosis) (Alfalfa; [4]): 10% | NEC (necrosis) (Alfalfa; [4]): 5% | PHY (phytotoxicity) (Alfalfa; [4]): 8% | VIG (vigor) (Alfalfa; [4]): 10% | CHL (chlorosis) (Alfalfa; [5]): 100% | NEC (necrosis) (Alfalfa; [5]): 100% | PHY (phytotoxicity) (Alfalfa; [5]): 100% | VIG (vigor) (Alfalfa; [5]): 100% | CHL (chlorosis) (Alfalfa; [6]): 100% | NEC (necrosis) (Alfalfa; [6]): 100% | PHY (phytotoxicity) (Alfalfa; [6]): 100% | VIG (vigor) (Alfalfa; [6]): 100% | CHL (chlorosis) (Alfalfa; [7]): 55% | NEC (necrosis) (Alfalfa; [7]): 58% | PHY (phytotoxicity) (Alfalfa; [7]): 57% | VIG (vigor) (Alfalfa; [7]): 58% | CHL (chlorosis) (Alfalfa; [8]): 30% | NEC (necrosis) (Alfalfa; [8]): 13% | PHY (phytotoxicity) (Alfalfa; [8]): 24% | VIG (vigor) (Alfalfa; [8]): 30% | CHL (chlorosis) (Alfalfa; [9]): 30% | NEC (necrosis) (Alfalfa; [9]): 30% | PHY (phytotoxicity) (Alfalfa; [9]): 37% | VIG (vigor) (Alfalfa; [9]): 50% | CHL (chlorosis) (Alfalfa; [10]): 25% | NEC (necrosis) (Alfalfa; [10]): 5% | PHY (phytotoxicity) (Alfalfa; [10]): 15% | VIG (vigor) (Alfalfa; [10]): 15% | CHL (chlorosis) (Alfalfa; [11]): 50% | NEC (necrosis) (Alfalfa; [11]): 10% | PHY (phytotoxicity) (Alfalfa; [11]): 37% | VIG (vigor) (Alfalfa; [11]): 50% | CHL (chlorosis) (Barnyard Grass; [2]): 25% | NEC (necrosis) (Barnyard Grass; [2]): 10% | PHY (phytotoxicity) (Barnyard Grass; [2]): 28% | VIG (vigor) (Barnyard Grass; [2]): 50% | CHL (chlorosis) (Barnyard Grass; [3]): 50% | NEC (necrosis) (Barnyard Grass; [3]): 18% | PHY (phytotoxicity) (Barnyard Grass; [3]): 39% | VIG (vigor) (Barnyard Grass; [3]): 50% | CHL (chlorosis) (Barnyard Grass; [4]): 30% | NEC (necrosis) (Barnyard Grass; [4]): 25% | PHY (phytotoxicity) (Barnyard Grass; [4]): 28% | VIG (vigor) (Barnyard Grass; [4]): 30% | CHL (chlorosis) (Barnyard Grass; [5]): 95% | NEC (necrosis) (Barnyard Grass; [5]): 88% | PHY (phytotoxicity) (Barnyard Grass; [5]): 90% | VIG (vigor) (Barnyard Grass; [5]): 88% | CHL (chlorosis) (Barnyard Grass; [6]): 88% | NEC (necrosis) (Barnyard Grass; [6]): 85% | PHY (phytotoxicity) (Barnyard Grass; [6]): 86% | VIG (vigor) (Barnyard Grass; [6]): 85% | CHL (chlorosis) (Barnyard Grass; [7]): 85% | NEC (necrosis) (Barnyard Grass; [7]): 78% | PHY (phytotoxicity) (Barnyard Grass; [7]): 80% | VIG (vigor) (Barnyard Grass; [7]): 78% | CHL (chlorosis) (Barnyard Grass; [8]): 55% | NEC (necrosis) (Barnyard Grass; [8]): 50% | PHY (phytotoxicity) (Barnyard Grass; [8]): 45% | VIG (vigor) (Barnyard Grass; [8]): 30% | CHL (chlorosis) (Barnyard Grass; [9]): 55% | NEC (necrosis) (Barnyard Grass; [9]): 60% | PHY (phytotoxicity) (Barnyard Grass; [9]): 59% | VIG (vigor) (Barnyard Grass; [9]): 63% | CHL (chlorosis) (Barnyard Grass; [10]): 65% | NEC (necrosis) (Barnyard Grass; [10]): 30% | PHY (phytotoxicity) (Barnyard Grass; [10]): 50% | VIG (vigor) (Barnyard Grass; [10]): 55% | CHL (chlorosis) (Barnyard Grass; [11]): 50% | NEC (necrosis) (Barnyard Grass; [11]): 60% | PHY (phytotoxicity) (Barnyard Grass; [11]): 62% | VIG (vigor) (Barnyard Grass; [11]): 75% | CHL (chlorosis) (Soybeans; HYVAR 10% dose, High Enzyme): 25% | NEC (necrosis) (Soybeans; HYVAR 10% dose, High Enzyme): 50% | PHY (phytotoxicity) (Soybeans; HYVAR 10% dose, High Enzyme): 42% | VIG (vigor) (Soybeans; HYVAR 10% dose, High Enzyme): 50% | CHL (chlorosis) (Soybeans; HYVAR 10% dose, Low Enzyme): 90% | NEC (necrosis) (Soybeans; HYVAR 10% dose, Low Enzyme): 83% | PHY (phytotoxicity) (Soybeans; HYVAR 10% dose, Low Enzyme): 88% | VIG (vigor) (Soybeans; HYVAR 10% dose, Low Enzyme): 90% | CHL (chlorosis) (Soybeans; HYVAR 10% dose, No Enzyme): 55% | NEC (necrosis) (Soybeans; HYVAR 10% dose, No Enzyme): 75% | PHY (phytotoxicity) (Soybeans; HYVAR 10% dose, No Enzyme): 68% | VIG (vigor) (Soybeans; HYVAR 10% dose, No Enzyme): 75% | CHL (chlorosis) (Soybeans; HYVAR 40% dose, High Enzyme): 45% | NEC (necrosis) (Soybeans; HYVAR 40% dose, High Enzyme): 50% | PHY (phytotoxicity) (Soybeans; HYVAR 40% dose, High Enzyme): 59% | VIG (vigor) (Soybeans; HYVAR 40% dose, High Enzyme): 83% | CHL (chlorosis) (Soybeans; HYVAR 40% dose, Low Enzyme): 55% | NEC (necrosis) (Soybeans; HYVAR 40% dose, Low Enzyme): 88% | PHY (phytotoxicity) (Soybeans; HYVAR 40% dose, Low Enzyme): 72% | VIG (vigor) (Soybeans; HYVAR 40% dose, Low Enzyme): 73% | CHL (chlorosis) (Soybeans; HYVAR 40% dose, No Enzyme): 45% | NEC (necrosis) (Soybeans; HYVAR 40% dose, No Enzyme): 60% | PHY (phytotoxicity) (Soybeans; HYVAR 40% dose, No Enzyme): 39% | VIG (vigor) (Soybeans; HYVAR 40% dose, No Enzyme): 73% | CHL (chlorosis) (Soybeans; HYVAR 100% dose, No Enzyme): 100% | NEC (necrosis) (Soybeans; HYVAR 100% dose, No Enzyme): 100% | PHY (phytotoxicity) (Soybeans; HYVAR 100% dose, No Enzyme): 100% | VIG (vigor) (Soybeans; HYVAR 100% dose, No Enzyme): 100% | PHYTOTOXICITY RATING ([1]; HYVAR (1:400 dilution), Day 2): - | PHYTOTOXICITY RATING ([1]; HYVAR (1:400 dilution), Day 3): - | PHYTOTOXICITY RATING ([1]; HYVAR alone (1:200 dilution), Day 1): - | PHYTOTOXICITY RATING ([1]; HYVAR alone (1:200 dilution), Day 2): + | PHYTOTOXICITY RATING ([1]; first experiment (1:200), HYVAR + 6.28 mg/ml GC219, Day 1): + | PHYTOTOXICITY RATING ([1]; first experiment (1:200), HYVAR + 6.28 mg/ml GC219, Day 2): ++ | PHYTOTOXICITY RATING ([1]; second experiment (1:400), HYVAR + 6.28 mg/ml GC219, Day 2): + | PHYTOTOXICITY RATING ([1]; second experiment (1:400), HYVAR + 6.28 mg/ml GC219, Day 3): ++ | PHYTOTOXICITY RATING ([1]; second experiment (1:400), HYVAR + 12.6 mg/ml GC219, Day 2): ++ | PHYTOTOXICITY RATING ([1]; second experiment (1:400), HYVAR + 12.6 mg/ml GC219, Day 3): ++
